In PMC6010140, “Design, synthesis and docking study of novel coumarin ligands as potential selective acetylcholinesterase inhibitors” (Journal of Enzyme Inhibition and Medicinal Chemistry, 2017):
“Also recorded” adds a separate entry of the source. Read-outs that look alike come from different tables or passages of the source.

Key:
AChE [1] = target: AChE (Electrophorus electricus, UniProt O42275); conditions: Lineweaver-Burk plot
Protocol: The plots were assessed by a weighted least-squares analysis that assumed the variance of velocity (v) to be a constant percentage of v for the entire data set.

BuChE = conditions: cited from earlier work
AChE [2] = conditions: cited from earlier work

Sequence of AChE (Electrophorus electricus, UniProt O42275) (O42275 24-633): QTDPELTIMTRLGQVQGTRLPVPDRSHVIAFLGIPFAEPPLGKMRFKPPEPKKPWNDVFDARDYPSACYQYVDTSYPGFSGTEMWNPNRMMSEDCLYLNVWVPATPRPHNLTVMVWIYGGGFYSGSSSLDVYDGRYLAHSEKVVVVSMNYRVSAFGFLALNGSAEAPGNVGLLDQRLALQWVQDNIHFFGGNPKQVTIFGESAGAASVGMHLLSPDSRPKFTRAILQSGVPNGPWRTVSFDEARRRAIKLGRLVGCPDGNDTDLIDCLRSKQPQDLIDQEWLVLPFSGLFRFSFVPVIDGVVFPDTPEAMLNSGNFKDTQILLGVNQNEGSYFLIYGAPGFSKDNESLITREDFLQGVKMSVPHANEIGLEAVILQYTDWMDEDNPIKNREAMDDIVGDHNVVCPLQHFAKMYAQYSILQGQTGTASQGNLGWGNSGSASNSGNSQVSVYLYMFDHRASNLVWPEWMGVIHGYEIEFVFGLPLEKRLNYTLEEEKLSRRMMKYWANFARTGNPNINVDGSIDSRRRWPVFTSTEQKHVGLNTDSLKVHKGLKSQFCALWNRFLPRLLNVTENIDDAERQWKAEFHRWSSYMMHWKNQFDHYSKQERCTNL

Structure (SMILES)	IC50 (BuChE) [µM]	IC50 (AChE [2]; authors' previous work) [µM]	also measured
CCN(CC)CC(=O)Nc1nc(-c2cc3ccccc3oc2=O)cs1 [Compound 6c, 2-(Diethylamino)-N-(4-(2-oxo-2H-chromen-3-yl)thiazol-2-yl)acetamide]			type of AChE inhibition (AChE [1]): mixed-type inhibitor; also recorded: mixed-type inhibition
O=C(Nc1nc(-c2cc3cc(Br)ccc3o2)cs1)Nc1ccccc1F [PBI-1]		3.85	
COc1cccc2cc(-c3csc(NC(=S)Nc4ccc(Cl)cc4)n3)c(=O)oc12 [PBI-2]		4.58	
